Reference: ChEMBL document CHEMBL1133044, “Nonpeptide GPIIB/IIIA receptor antagonists. Part 21: C-6 flexibility and amide bond orientation are important factors in determining the affinity of compounds for activated or resting platelet receptors” (Bioorg Med Chem Lett, 2000)

Columns and labels:
[1] = target: T1, Integrin alpha-IIb/beta-3 (Homo sapiens, UniProt P05106+P08514); assay: Competition with [1251]L-692,884 for binding to purified alpha IIb/beta3 integrin, activated by coating onto yttrium silicate scintillation proximity assay fluomicrospheres.; assay type: protein-complex assay
Target sequence in this assay (P05106 27-788 limits assumed): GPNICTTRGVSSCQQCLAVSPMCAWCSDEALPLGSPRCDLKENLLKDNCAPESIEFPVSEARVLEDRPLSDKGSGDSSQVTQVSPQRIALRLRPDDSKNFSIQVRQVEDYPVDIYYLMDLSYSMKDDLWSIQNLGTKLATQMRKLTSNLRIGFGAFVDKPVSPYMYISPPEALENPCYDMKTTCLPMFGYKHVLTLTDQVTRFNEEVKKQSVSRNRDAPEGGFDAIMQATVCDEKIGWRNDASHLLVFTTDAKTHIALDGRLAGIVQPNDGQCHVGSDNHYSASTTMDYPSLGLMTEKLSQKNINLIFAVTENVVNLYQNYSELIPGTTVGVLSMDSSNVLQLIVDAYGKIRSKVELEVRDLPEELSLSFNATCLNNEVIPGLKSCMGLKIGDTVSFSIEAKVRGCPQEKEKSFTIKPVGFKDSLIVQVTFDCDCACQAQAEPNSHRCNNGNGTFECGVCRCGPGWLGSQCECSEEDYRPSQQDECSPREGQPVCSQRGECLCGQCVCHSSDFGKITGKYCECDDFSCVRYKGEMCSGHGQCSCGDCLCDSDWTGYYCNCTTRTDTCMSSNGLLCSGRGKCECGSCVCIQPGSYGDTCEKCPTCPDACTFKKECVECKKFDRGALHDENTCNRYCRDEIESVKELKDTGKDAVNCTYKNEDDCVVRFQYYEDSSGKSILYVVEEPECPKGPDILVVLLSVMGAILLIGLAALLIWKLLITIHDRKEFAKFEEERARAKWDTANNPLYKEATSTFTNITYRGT
Target sequence in this assay (P08514 32-887 limits assumed): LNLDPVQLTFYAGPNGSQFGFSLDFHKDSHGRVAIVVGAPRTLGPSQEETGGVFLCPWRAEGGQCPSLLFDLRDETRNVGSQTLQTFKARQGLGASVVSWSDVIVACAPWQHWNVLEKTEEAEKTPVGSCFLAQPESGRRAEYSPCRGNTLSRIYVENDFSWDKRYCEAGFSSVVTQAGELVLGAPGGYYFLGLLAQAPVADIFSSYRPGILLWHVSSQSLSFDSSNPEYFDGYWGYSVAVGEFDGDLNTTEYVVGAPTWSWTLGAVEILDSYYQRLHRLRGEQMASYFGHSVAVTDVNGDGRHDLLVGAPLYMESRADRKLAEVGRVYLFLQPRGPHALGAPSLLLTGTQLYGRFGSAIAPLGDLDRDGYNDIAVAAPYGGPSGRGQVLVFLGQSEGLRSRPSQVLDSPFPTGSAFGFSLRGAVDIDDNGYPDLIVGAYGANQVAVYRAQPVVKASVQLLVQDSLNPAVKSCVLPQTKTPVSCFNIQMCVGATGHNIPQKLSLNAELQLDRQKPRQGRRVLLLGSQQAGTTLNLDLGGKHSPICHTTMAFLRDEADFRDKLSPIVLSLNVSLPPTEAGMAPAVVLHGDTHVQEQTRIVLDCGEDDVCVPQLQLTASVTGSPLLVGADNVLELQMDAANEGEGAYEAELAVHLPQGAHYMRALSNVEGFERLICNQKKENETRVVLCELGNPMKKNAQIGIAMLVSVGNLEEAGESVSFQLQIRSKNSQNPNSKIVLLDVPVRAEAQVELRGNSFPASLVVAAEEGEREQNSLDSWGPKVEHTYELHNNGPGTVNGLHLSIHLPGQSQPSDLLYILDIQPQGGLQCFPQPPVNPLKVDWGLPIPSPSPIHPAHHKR
Target sequence in this assay (P08514 891-1039 limits assumed): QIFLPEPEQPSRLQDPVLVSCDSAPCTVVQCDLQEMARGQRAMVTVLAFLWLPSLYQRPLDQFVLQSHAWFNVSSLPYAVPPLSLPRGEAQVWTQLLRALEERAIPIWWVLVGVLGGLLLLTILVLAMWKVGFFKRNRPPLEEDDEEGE

[2] = target: T1, Integrin alpha-IIb/beta-3; assay: Binding affinity to resting form of alpha IIb/beta3 integrin by flow cytometry using fluorescein ligand L-726,745 displacement from human platelets.
Target sequence in this assay (P05106 27-788 limits assumed): as the sequence (P05106 27-788 limits assumed) above
Target sequence in this assay (P08514 32-887 limits assumed): as the sequence (P08514 32-887 limits assumed) above
Target sequence in this assay (P08514 891-1039 limits assumed): as the sequence (P08514 891-1039 limits assumed) above

[3] = target: T1, Integrin alpha-IIb/beta-3; assay: Selectivity as determined by the ratio of KDs, resting receptor over activated receptor; assay type: protein-complex assay
[4] = Inhibition of aggregation of human gel-filtered platelets measured by light transmittance method at 37 degrees C.

SMILES | Kd [1] | Kd [2] | Selectivity [3] | IC50 [4]
O=C(O)C[C@H](NC(=O)CN1CCc2ccc(N3CCNCC3)cc2C1=O)c1cccnc1 | 0.25 nM | 3.4 nM | 14 | 
C#C[C@H](CC(=O)O)NC(=O)C[C@H]1CCCN(CCc2ccnc(N)c2)C1=O | 0.26 nM | 60 nM | 230 | 
O=C(O)C[C@@H](CO)NC(=O)CN1CCc2ccc(N3CCNCC3)cc2C1=O | 15 nM | > 1000 nM | > 67 | 
C[C@@H](/C=C/CN1CCC[C@@H](CCC2CCNCC2)C1=O)CC(=O)O | 12 nM | 2300 nM | 192 | 
C#C[C@H](CC(=O)O)NC(=O)CN1CCC[C@@H](CCc2ccnc(N)c2)C1=O | 0.78 nM | 340 nM | 435 | 
C[C@H](CC(=O)O)NC(=O)CN1CCC[C@@H](CCC2CCNCC2)C1=O |  | 640 nM | 140 | 
C#CC(CCCN1CCC[C@@H](CCC2CCNCC2)C1=O)CC(=O)O (stereo partly specified) | 9 nM | 3100 nM | 344 | 
C#C[C@H](CC(=O)O)NC(=O)CN1CCC[C@@H](CCC2CCNCC2)C1=O | 0.86 nM | 210 nM | 244 | 
C#CC(CC(=O)O)NC(=O)CN(C(=O)c1cccc(C2CCNCC2)c1)C1CC1 (stereo unspecified) | 0.85 nM | 120 nM | 141 | 
C#C[C@H](CC(=O)O)NC(=O)C[C@H]1CCCN(CCC2CCNCC2)C1=O | 0.34 nM | 6.1 nM | 18 | 
O=C(O)CCNC(=O)CN1CCc2ccc(N3CCNCC3)cc2C1=O | 9.7 nM |  |  | 
C#C[C@H](CC(=O)O)NC(=O)CN1CCc2ccc(N3CCNCC3)cc2C1=O | 0.56 nM | 50 nM | 89 | 
C#C[C@H](CC(=O)O)NC(=O)c1ccc2c(c1)C(=O)N(CCc1ccnc(N)c1)C2 | 2.2 nM | 84 nM | 38 | 

Further lines, results first:

Kd [1] | Kd [2] | Selectivity [3] | IC50 [4] | SMILES
0.25 nM | 3.1 nM | 12 |  | O=C(NC[C@H](NS(=O)(=O)c1ccccc1)C(=O)O)c1ccc2c(c1)C(=O)N(CCC1CCNCC1)C2
46 nM |  | 14 | 470 nM | O=C(O)CCNC(=O)c1cc2n(n1)CCCN(CCC1CCNCC1)C2=O
21 nM | 47 nM | 2 |  | O=C(O)C[C@@H](CO)NC(=O)c1ccc2c(c1)C(=O)N(CCC1CCNCC1)C2
64 nM | 49 nM | 0.8 |  | CC(CC(=O)O)NC(=O)c1ccc2c(c1)C(=O)N(CCC1CCNCC1)C2 (stereo unspecified)
0.78 nM | 15 nM | 19 |  | O=C(CN1CCC[C@@H](CCC2CCNCC2)C1=O)NC[C@H](NS(=O)(=O)c1ccccc1)C(=O)O
13 nM | 120 nM | 9 | 27 nM | O=C(O)CCNC(=O)c1ccc2c(c1)C(=O)N(CCC1CCNCC1)C2
0.09 nM | 2.1 nM | 23 | 8 nM | O=C(NC[C@H](NS(=O)(=O)c1ccccc1)C(=O)O)c1cc2cc(CCC3CCNCC3)sc2s1
0.3 nM | 11 nM | 37 |  | O=C(O)C[C@H](NC(=O)C[C@H]1CCCN(CCC2CCNCC2)C1=O)c1cccnc1
0.056 nM | 1.3 nM | 24 |  | O=C(NC[C@H](NS(=O)(=O)c1ccccc1)C(=O)O)c1cc2cc(OCCC3CCNCC3)ccc2[nH]1
0.08 nM |  | 18 |  | Cc1ccc(S(=O)(=O)N[C@@H](CNC(=O)c2cc3n(n2)CCCN(CCC2CCNCC2)C3=O)C(=O)O)cc1
6.7 nM | 13 nM | 1.9 |  | O=C(CN1CCc2ccc(N3CCNCC3)cc2C1=O)NC[C@H](NS(=O)(=O)c1ccccc1)C(=O)O
0.38 nM | 84 nM | 221 |  | O=C(O)C[C@H](NC(=O)CN1CCC[C@@H](CCC2CCNCC2)C1=O)c1cccnc1
0.16 nM | 2.4 nM | 15 |  | O=C(NC[C@H](NS(=O)(=O)c1ccccc1)C(=O)O)c1ccc(OCCC2CCNCC2)cc1
